Measurements: PMC7215089, “Identification of a Conserved Prophenoloxidase Activation Pathway in Cotton Bollworm Helicoverpa armigera” (Frontiers in Immunology, 2020)

Molecular target: T1, PPO / PO (PPO1-PPO2 heterodimer) (Helicoverpa armigera, UniProt A0A290U614+Q2VIY6)
T1 sequence (A0A290U614 1-684): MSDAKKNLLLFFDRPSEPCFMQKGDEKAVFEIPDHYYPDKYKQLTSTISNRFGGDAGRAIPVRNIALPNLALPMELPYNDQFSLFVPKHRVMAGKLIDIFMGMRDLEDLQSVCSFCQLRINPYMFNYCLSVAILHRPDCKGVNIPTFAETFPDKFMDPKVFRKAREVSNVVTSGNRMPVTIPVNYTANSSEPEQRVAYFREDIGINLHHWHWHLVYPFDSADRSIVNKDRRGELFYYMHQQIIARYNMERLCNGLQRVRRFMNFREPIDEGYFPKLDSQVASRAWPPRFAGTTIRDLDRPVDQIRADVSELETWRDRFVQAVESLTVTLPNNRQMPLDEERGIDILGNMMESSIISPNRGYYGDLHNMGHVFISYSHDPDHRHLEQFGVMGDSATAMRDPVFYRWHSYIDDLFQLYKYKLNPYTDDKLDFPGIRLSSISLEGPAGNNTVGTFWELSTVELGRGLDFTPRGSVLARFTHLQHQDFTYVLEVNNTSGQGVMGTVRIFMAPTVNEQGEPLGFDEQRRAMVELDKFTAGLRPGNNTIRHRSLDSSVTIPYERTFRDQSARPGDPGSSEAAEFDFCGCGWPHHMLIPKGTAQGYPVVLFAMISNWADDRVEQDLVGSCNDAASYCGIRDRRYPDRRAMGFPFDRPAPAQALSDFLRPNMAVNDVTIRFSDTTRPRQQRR
T1 sequence (Q2VIY6 1-698): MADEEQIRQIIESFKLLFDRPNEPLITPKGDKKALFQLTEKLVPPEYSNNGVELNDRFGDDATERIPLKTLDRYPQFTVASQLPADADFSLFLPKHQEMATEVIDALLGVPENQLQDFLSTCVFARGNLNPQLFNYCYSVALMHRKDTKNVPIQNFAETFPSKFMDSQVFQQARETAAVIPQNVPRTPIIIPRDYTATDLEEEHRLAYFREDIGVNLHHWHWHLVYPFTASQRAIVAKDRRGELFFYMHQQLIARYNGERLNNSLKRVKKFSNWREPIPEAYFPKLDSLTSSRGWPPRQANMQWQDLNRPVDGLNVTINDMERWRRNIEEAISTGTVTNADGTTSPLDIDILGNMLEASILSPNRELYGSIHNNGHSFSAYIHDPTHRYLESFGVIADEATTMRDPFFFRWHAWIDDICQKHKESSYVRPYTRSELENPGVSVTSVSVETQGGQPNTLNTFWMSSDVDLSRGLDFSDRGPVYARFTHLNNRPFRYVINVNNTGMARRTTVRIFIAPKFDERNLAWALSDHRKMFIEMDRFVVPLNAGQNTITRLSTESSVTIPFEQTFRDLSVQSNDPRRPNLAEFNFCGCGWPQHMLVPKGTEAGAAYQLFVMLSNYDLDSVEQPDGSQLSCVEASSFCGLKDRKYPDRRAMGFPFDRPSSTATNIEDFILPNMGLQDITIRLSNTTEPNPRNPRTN
Experiment: phenoloxidase assay, dopamine chrome formation
Format: biochemical
Details: PPO activated by CPC

## NCCc1ccc(O)c(O)c1 [dopamine]
  phenoloxidase assay, dopamine chrome formation: production of dopamine chrome (or dopachrome) from dopamine (or dopa)
